Measured values: patent US5420128A, “Pyrimidine derivatives, method of manufacturing the same, and androgen inhibitor” (Otsuka Pharmaceutical Co., Ltd., priority 1990, dated 1995)

Target: T1, rat prostate androgen receptor (Rattus norvegicus, UniProt P15207)
T1 construct: the supernatant was obtained as cytoplasm fraction; from tissue; host or cells: cytosol (105000×g supernatant) of rat ventral prostate, 24 hours after castration
T1 sequence (P15207 1-902): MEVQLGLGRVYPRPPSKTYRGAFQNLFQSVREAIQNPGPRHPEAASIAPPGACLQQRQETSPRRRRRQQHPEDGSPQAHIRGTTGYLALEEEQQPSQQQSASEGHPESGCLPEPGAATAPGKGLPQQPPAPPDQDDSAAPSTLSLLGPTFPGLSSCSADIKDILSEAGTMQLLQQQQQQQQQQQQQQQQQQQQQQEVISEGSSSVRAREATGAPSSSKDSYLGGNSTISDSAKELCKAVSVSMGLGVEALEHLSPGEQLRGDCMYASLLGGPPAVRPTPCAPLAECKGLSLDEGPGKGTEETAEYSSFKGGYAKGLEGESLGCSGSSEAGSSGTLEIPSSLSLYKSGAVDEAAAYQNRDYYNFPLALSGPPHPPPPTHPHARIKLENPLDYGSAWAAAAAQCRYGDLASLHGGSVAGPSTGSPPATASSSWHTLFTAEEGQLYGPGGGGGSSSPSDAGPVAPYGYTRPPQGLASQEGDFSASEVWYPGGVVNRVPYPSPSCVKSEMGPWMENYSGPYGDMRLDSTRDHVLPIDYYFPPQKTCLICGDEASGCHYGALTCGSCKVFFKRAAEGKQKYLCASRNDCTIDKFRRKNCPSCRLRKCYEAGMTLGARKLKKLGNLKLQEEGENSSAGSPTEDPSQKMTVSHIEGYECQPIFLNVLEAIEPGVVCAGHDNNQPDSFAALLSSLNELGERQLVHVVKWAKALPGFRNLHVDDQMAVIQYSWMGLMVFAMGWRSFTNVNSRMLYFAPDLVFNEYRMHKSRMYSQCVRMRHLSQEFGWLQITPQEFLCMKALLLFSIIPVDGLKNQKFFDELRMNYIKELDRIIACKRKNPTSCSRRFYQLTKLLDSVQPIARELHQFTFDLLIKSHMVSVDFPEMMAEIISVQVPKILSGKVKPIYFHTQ
Assay: inhibitory activity on binding of ^3 H-mibolerone on rat prostate androgen receptor
Settings: ^3 H-mibolerone 1 nM, triamcinolone acetonide 5 μM, rat ventral prostate cytosol, 20 hours at 0° C.; read-out: Inhibitory activity on mibolerone specific binding [IC50 (M)]
Protocol: B. Measurement of inhibitory activity on binding of ^3 H-mibolerone on rat prostate androgen receptor
(1) Preparation of cytosol from rat prostate
The rat was sacrificed 24 hours after castration, and the ventral lobe of prostate was removed, and was gently homogenized, in ice-cooling water bath, at first by using Polytron and then using Potter type homogenizer, in three-fold amount of buffer solution A (1.5 mM EDTA, 2 mM dithiothreitol, 10 mM molybdate sodium, 10 % by volume of glycerol, 10 mM NaF, 25 mM phosphate sodium, pH 7.2). The obtained homogenate was filtrated through double gauze, and centrifuged at 105000×g for 60 minutes at 4° C., and the supernatant was obtained as cytoplasm fraction.
(2) Measurement of specific binding of ^3 H-mibolerone on prostate cytoplasm androgen receptor
To the cytoplasm fraction obtained in (1), ^3 H-mibolerone (87.0 Ci/mmol) was added, so that a final concentration is adjusted to 1 nM, and at the same time, in order to inhibit binding of ^3 H-mibolerone to progestin receptor, triamsinolone acetonide was added to a final concentration of 5 μM, and the final volume was adjusted to 0.4 ml with buffer solution A, and the reaction mixture was incubated for 20 hours at 0° C. After incubation, 0.5 ml of 60% hydroxylapatite slurry (washed and equilibrate with a buffer solution B: 10 mM NaH2 P04, 20 mM tris-hydrochloric acid, pH 7.2) was added, and incubated for 10 minutes at 0° C., the solution was transferred onto a glass fiber filter, and washed five times with 5 ml portions of buffer solution B containing 0.1% (weight/volume) of Triton X-100, to remove free ^3 H-mibolerone. This glass fiber was transferred into vial, and 10 ml of aquasol-2 was added, and the radioactivity was measured, and the total binding amount of ^3 H-mibolerone on prostate cytoplasm androgen receptor was determined.
The nonspecific binding amount was determined similarly by adding an unlabeled 5α-DHT in the reaction solution to a final concentration of 1 μM. The difference between the total binding amount and nonspecific binding amount was determined as the specific binding amount on the androgen receptor.
(3) Inhibitory activity of sample compounds on ^3 H-mibolerone specific binding
The compounds obtained in the experiments were added simultaneously with ^3 H-mibolerone at different concentrations to incubate same as in (2), and the specific binding amount of 3H-mibolerone on androgen receptor was determined. Comparing this value with the value obtained in (2), the IC50 value of inhibitory activity of the compounds on ^3 H-mibolerone specific binding was determined.

| IC50 [M] | SMILES |
| --- | --- |
| 4.6e-07 | Oc1c(C(O)c2ccccc2)cnc2c(-c3ccc(Sc4ccccc4)cc3)cnn12 (stereo not drawn) [Example 71, 7-Hydroxy-6-(α-hydroxybenzyl)-3-(4-phenylthiophenyl)pyrazolo[1,5-a]pyrimidine] |
| 2.5e-08 | Oc1c(Cc2ccccc2)cnc2c(-c3ccc(Sc4ccccc4)cc3)cnn12 [Example 29, 7-Hydroxy-6-benzyl-3-(4-phenylthiophenyl)prazolo[1,5-a]pyrimidine] |
| 1.7e-07 | CC(C)(C)NC(=O)c1cnc2c(-c3ccc(Sc4ccccc4)cc3)cnn2c1O [Example 46, 7-Hydroxy-3-(4-phenylthiophenyl)-6-(N-t-butyl)carbamoylpyrazolo[1,5-a]pyrimidine] |
| 3.9e-08 | OCCc1cnc2c(-c3ccc(Sc4ccccc4)cc3)cnn2c1O [Example 60, 7-Hydroxy-6-(2-hydroxyethyl)-3-(4-phenylthiophenyl)pyrazolo[1,5-a]pyrimidine] |
| 1.45e-07 | Oc1c(-c2ccccc2F)cnc2c(-c3ccc(Sc4ccccc4)cc3)cnn12 [Example 57, 7-Hydroxy-6-(2-fluorophenyl)-3-(4-phenylthiophenyl)pyrazolo[1,5-a]pyrimidine] |
| 1.3e-05 | CC(C)c1cc(O)n2ncc(-c3ccc(Sc4ccccc4)cc3)c2n1 [Example 7, 7-Hydroxy-5-isopropyl-3-(4-phenylthiophenyl)pyrazolo[1,5-a]pyrimidine] |
| 1.6e-07 | Oc1c(C(O)C(F)(F)F)cnc2c(-c3ccc(Sc4ccccc4)cc3)cnn12 (stereo not drawn) [Example 72, 7-Hydroxy-6-(1-hydroxy-2,2,2-trifluoroethyl)-3-(4-phenylthiophenyl)pyrazolo[1,5-a]pyrimidine] |
| 4.2e-07 | Oc1c2c(nc3c(-c4ccc(Sc5ccccc5)cc4)cnn13)CCC2 [Example 11, 5H-6,7-Dihydro-8-hydroxy-3-(4-phenylthiophenyl)cyclopenta[d]pyrazolo[1,5-a]pyrimidine] |
| 5.8e-08 | Oc1c(-c2ccccc2)cnc2c(-c3ccc(Sc4ccccc4)cc3)cnn12 [Example 23, 7-Hydroxy-6-phenyl-3-(4-phenylthiophenyl)pyrazolo[1,5-a]pyrimidine] |
| 2.8e-07 | CCOC(=O)Cc1cnc2c(-c3ccc(Sc4ccccc4)cc3)cnn2c1O [Example 33, 7-Hydroxy-6-ethoxycarbonylmethyl-3-(4-phenylthiophenyl)pyrazolo[1,5-a]pyrimidine] |
| 6.4e-08 | Cc1cnc2c(-c3ccc(Sc4ccccc4)cc3)cnn2c1O [Example 24, 7-Hydroxy-6-methyl-3-(4-phenylthiophenyl)pyrazolo[1,5-a]pyrimidine] |
| 3.4e-07 | Cc1ccc(-c2cnc3c(-c4ccc(Sc5ccccc5)cc4)cnn3c2O)cc1 [Example 51, 7-Hydroxy-6-(4-methylphenyl)-3-(4-phenylthiophenyl)pyrazolo[1,5-a]pyrimidin] |
| > 5e-06 | Oc1ccc(Cc2cnc3c(-c4ccc(Sc5ccccc5)cc4)cnn3c2O)cc1 [Example 63, 7-Hydroxy-6-(4-hydroxyphenylmethyl)-3-(4-phenylthiophenyl)pyrazolo[1,5-a]pyrimidine] |
| 3.2e-07 | COc1ccccc1Cc1cnc2c(-c3ccc(Sc4ccccc4)cc3)cnn2c1O [Example 30, 7-Hydroxy-6-(2-methoxyphenylmethyl)-3-(4-phenylthiophenyl)pyrazolo[1,5-a]pyrimidine] |
| > 5e-06 | COCc1nn2c(O)ccnc2c1-c1ccc(Sc2ccccc2)cc1 [Example 19, 7-Hydroxy-2-methoxymethyl-3-(4-phenylthiophenyl)pyrazolo[1,5-a]pyrimidine] |
| 1.3e-07 | O=C(O)CCc1cnc2c(-c3ccc(Sc4ccccc4)cc3)cnn2c1O [Example 39, 7-Hydroxy-6-carboxyethyl-3-(4-phenylthiophenyl)pyrazolo[1,5-a]pyrimidine] |
| > 5e-06 | Oc1c(CCc2ccccc2)cnc2c(-c3ccc(Sc4ccccc4)cc3)cnn12 [Example 28, 7-Hydroxy-6-phenethyl-3-(4-phenylthiophenyl)pyrazolo[1,5-a]pyrimidine] |
| 1.2e-07 | Oc1c(-c2cccc(F)c2)cnc2c(-c3ccc(Sc4ccccc4)cc3)cnn12 [Example 56, 7-Hydroxy-6-(3-fluorophepyl)-3-(4-phenylthiophenyl)pyrazolo[1,5-a]pyrimidine] |
| 6.6e-08 | Oc1c(-c2ccc(F)cc2)cnc2c(-c3ccc(Sc4ccccc4)cc3)cnn12 [Example 55, 7-Hydroxy, 6-(4-fluorophenyl)-3-(4-phenylthiophenyl)pyrazolo[1,5-a]pyrimidine] |
| 1.55e-07 | CC(O)c1cnc2c(-c3ccc(Sc4ccccc4)cc3)cnn2c1O (stereo not drawn) [Example 70, 7-Hydroxy-6-(1-hydroxyethyl)-3-(4-phenylthiophenyl)pyrazolo[1,5-a]pyrimidine] |

| IC50 [M] | SMILES |
| --- | --- |
| 3.1e-05 | Oc1cc(CCl)nc2c(-c3ccc(Sc4ccccc4)cc3)cnn12 [Example 9, 7-Hydroxy-5-chloromethyl-3-(4-phenylthiophenyl)pyrazolo[1,5-a]pyrimidine] |
| 2e-06 | Oc1cc(C(F)(F)F)nc2c(-c3ccc(Sc4ccccc4)cc3)cnn12 [Example 13, 7-Hydroxy-5-trifluoromethyl-3-(4-phenylthiophenyl)pyrazolo[1,5-a]pyrimidine] |
| 7.6e-07 | COc1cccc(-c2cnc3c(-c4ccc(Sc5ccccc5)cc4)cnn3c2O)c1 [Example 54, 7-Hydroxy-6-(3-methoxyphenyl)-3-(4-phenylthiophenyl)pyrazolo[1,5-a]pyrimidine] |
| 8.8e-08 | Oc1c(Br)cnc2c(-c3ccc(Sc4ccccc4)cc3)cnn12 [Example 35, 7-Hydroxy-6-bromo-3-(4-phenylthiophenyl)pyrazolo[1,5a]pyrimidine] |
| 5.2e-08 | Oc1c(F)cnc2c(-c3ccc(Sc4ccccc4)cc3)cnn12 [Example 22] |
| 7.6e-08 | NC(=O)c1cnc2c(-c3ccc(Sc4ccccc4)cc3)cnn2c1O [Example 43] |
| 2.3e-08 | Cc1cc(-c2cnn3c(O)ccnc23)ccc1Sc1ccccc1 [Example 76, 7-Hydroxy-3-(3-methyl-4-phenylthiophenyl)pyrazolo[1,5-a]pyrimidine] |
| 1.3e-07 | Oc1c(Cl)cnc2c(-c3ccc(Sc4ccccc4)cc3)cnn12 [Example 36, 7-Hydroxy-6-chloro-3-(4-phenylthiophenyl)pyrazolo[1,5-a]pyrimidine] |
| > 5e-06 | Oc1c2c(nc3c(-c4ccc(Sc5ccccc5)cc4)cnn13)CCCC2 [Example 12, 9-Hydroxy-3-(4-phenylthiophenyl)-5,6,7,8-tetrahydropyrazolo[5,1-b]quinazoline] |
| > 5e-06 | Oc1cc(-c2ccccc2)nc2c(-c3ccc(Sc4ccccc4)cc3)cnn12 [Example 10, 7-Hydroxy-5-phenyl-3-(4-phenylthiophenyl)pyrazolo[1,5-a]pyrimidine] |
| 8.8e-07 | O=C(c1cnc2c(-c3ccc(Sc4ccccc4)cc3)cnn2c1O)C(F)(F)F [Example 69, 7-Hydroxy-6-trifluoroacetyl-3-(4-phenylthiophenyl)pyrazolo[1,5-a]pyrimidine] |
| 5e-08 | N#Cc1cnc2c(-c3ccc(Sc4ccccc4)cc3)cnn2c1O [Example 47, 7-Hydroxy-6-cyano-3,(4-phenylthiophenyl)pyrazolo[1,5-a]pyrimidine] |
| 1.3e-06 | O=C(c1ccccc1)c1cnc2c(-c3ccc(Sc4ccccc4)cc3)cnn2c1O [Example 68, 7-Hydroxy-6-benzoyl-3-(4-phenylthiophenyl)pyrazolo[1,5-a]pyrimidine] |
| 1.2e-07 | Oc1cccc(Cc2cnc3c(-c4ccc(Sc5ccccc5)cc4)cnn3c2O)c1 [Example 62, 7-Hydroxy-6-(3-hydroxyphenylmethyl)-3-(4-phenylthiophenyl)pyrazolo[1,5-a]pyrimidine] |
| 1.6e-07 | CCc1cnc2c(-c3ccc(Sc4ccccc4)cc3)cnn2c1O [Example 25, 7-Hydroxy-6-ethyl-3-(4-phenylthiophenyl)pyrazolo[1,5-a]pyrimidine] |
| > 5e-06 | COc1ccc(-c2cnc3c(-c4ccc(Sc5ccccc5)cc4)cnn3c2O)cc1Br [Example 73, 6-(3-bromo-4-methoxyphenyl)-7-hydroxy-3-(4-phenylthiophenyl)pyrazolo[1,5-a]pyrimidine] |
| 1.7e-06 | Oc1cc(C2CC2)nc2c(-c3ccc(Sc4ccccc4)cc3)cnn12 [Example 8, 7-Hydroxy-5-cyclopropyl-3-(4-phenylthiophenyl)pyrazolo[1,5-a]pyrimidine] |
| 2.3e-07 | COc1ccc(-c2cnc3c(-c4ccc(Sc5ccccc5)cc4)cnn3c2O)cc1 [Example 52, 7-Hydroxy-6-(4-methoxyphenyl)-3-(4-phenylthiophenyl)pyrazolo[1,5-a]pyrimidine] |
| 1.4e-07 | Oc1cccc(-c2cnc3c(-c4ccc(Sc5ccccc5)cc4)cnn3c2O)c1 [Example 65, 7-Hydroxy-6-(3-hydroxyphenyl)-3-(4-phenylthiophenyl)pyrazolo[1,5-a]pyrimidine] |
